Measurements: the PolyMetriX glass transition set
± gives the standard deviation of the reports.

SMILES | glass transition temperature [°C]
*Oc1c(C)cc(-c2cc(C)c(Oc3ccc(C(=O)c4ccc(*)cc4)cc3)c(C)c2)cc1C (repeat unit) | 246.63
*Oc1ccc(P(C)(=O)c2ccc(Oc3ccc(C(C)(C)c4ccc(*)cc4)cc3)cc2)cc1 (repeat unit) | 192.00
*OC(COC(=O)c1ccccc1-c1ccccc1C(*)=O)COc1ccc(/N=N/c2ccc(C#N)cc2)cc1 (repeat unit) | 120.00
*c1ccc(OC(=O)c2cccc(C(=O)Oc3ccc(C4(*)c5ccccc5C(=O)N4C)cc3)c2)cc1 (repeat unit) | 285.00
*CC(*)(C)C(=O)OCC#N (repeat unit) | 91.00
*ON(C(F)(F)F)C(F)(C(*)(F)F)C(F)(F)F (repeat unit) | -9.00
*O[Si](C)(C)O[Si](C)(C)O[Si](C)(C)O[Si](C)(C)O[Si](C)(C)OC1=C(*)c2cccc3cccc1c23 (repeat unit) | -54.00
*c1cc(-c2sc(-c3cc(CCCC)c(*)s3)cc2CCCC)c2cccccc1-2 (repeat unit) | 124.00
*O[Si](C)(C)CCCC(=O)Oc1ccc(/C=N/c2ccc(Oc3ccc(/N=C/c4ccc(OC(=O)CCC[Si](*)(C)C)cc4)cc3)cc2)cc1 (repeat unit) | 52.00
*c1ccc(Sc2cc3c(cc2Sc2ccc(N4C(=O)c5ccc(Oc6ccc7c(c6)C(=O)N(*)C7=O)cc5C4=O)cc2)C(=O)N(CCCCCCCCCCCCCCCC)C3=O)cc1 (repeat unit) | 156.00
*C(=O)Nc1ccc(Oc2cccc(Oc3ccc(NC(=O)c4ccc5c(c4)C(=O)N(c4ccc(Oc6ccc(C7(c8ccc(Oc9ccc(N%10C(=O)c%11ccc(*)cc%11C%10=O)cc9)cc8)NC(=O)c8ccccc87)cc6)cc4)C5=O)cc3)c2)cc1 (repeat unit) | 288.00
*Oc1ccc(C2(c3ccc(Oc4c(F)c(F)c(C(=O)c5c(F)c(F)c(*)c(F)c5F)c(F)c4F)cc3)c3ccccc3-c3ccccc32)cc1 (repeat unit) | 223.00
*Oc1ccc(C(C)(C)c2cccc(C(C)(C)c3ccc(Oc4ccc(C(=O)Nc5ccc(Cc6ccc(NC(=O)c7ccc(*)cc7)cc6)cc5)cc4)cc3)c2)cc1 (repeat unit) | 149.00
*c1ccc(Oc2ccc(-n3nc(-c4ccccc4)cc3-c3cccc(-c4cc(-c5ccccc5)nn4*)c3)cc2)cc1 (repeat unit) | 232.00
*O[Si](*)(C)c1ccc(C)cc1 (repeat unit) | -17.00
*c1ccc2c(c1)C(=O)N(c1cccc(NC(=O)C(F)(F)C(F)(F)C(F)(F)C(F)(F)C(=O)Nc3cccc(N4C(=O)c5ccc(C(*)(C(F)(F)F)C(F)(F)F)cc5C4=O)c3)c1)C2=O (repeat unit) | 232.00
*Oc1ccc(OC(=O)c2ccc(C(*)=O)cc2Oc2ccc(Cl)cc2)cc1 (repeat unit) | 107.00
*CC(*)C(=O)OC([2H])([2H])[2H] (repeat unit) | 35.00
*C(=O)Nc1ccc(Oc2ccc(N3C(=O)c4ccc(*)cc4C3=O)cc2)cc1 (repeat unit) | 295.00
*CC(*)c1ccccc1Br (repeat unit) | 149.00
*C(=O)c1ccc2c(c1)C(=O)N(c1ccc(N(c3ccc(C#N)cc3)c3ccc(N4C(=O)c5ccc(*)cc5C4=O)cc3)cc1)C2=O (repeat unit) | 315.00
*CC1CCCC(Cn2c(=O)c3cc4c(=O)n(*)c(=O)c4cc3c2=O)C1 (repeat unit) | 263.00
*C(=O)c1ccc(N(*)CCCC)cc1 (repeat unit) | 124.00
*c1ccc(Oc2cccc(Oc3ccc(N4C(=O)c5ccc(Oc6cccc(Oc7ccc8c(c7)C(=O)N(*)C8=O)c6)cc5C4=O)cc3)c2)cc1 (repeat unit) | 188.00

SMILES | glass transition temperature [°C]
*CC(*)C(=O)Oc1cccc(C(=O)OCC)c1 (repeat unit) | 24.00
*CC(*)(C)C(=O)OCCCCCCCCCCn1c2ccccc2c2cc(/C=C(\C#N)c3ccc([N+](=O)[O-])cc3)ccc21 (repeat unit) | 40.00
*CC(*)C(=O)Nc1ccc(C(=O)/C=C/c2cccc(Br)c2)cc1 (repeat unit) | 55.00
*C(=O)c1ccc(Oc2ccc(-c3ccc(Oc4ccc(C(=O)c5ccc6c(c5)C(=O)N(c5ccc(Oc7ccc(N8C(=O)c9ccc(*)cc9C8=O)cc7)cc5)C6=O)cc4)cc3)cc2)cc1 (repeat unit) | 233.00
*CC(O)C(O)COC(=O)O* (repeat unit) | 39.60
*Oc1ccc(CC(NC(=O)CCc2ccc(OC(=O)CCC(*)=O)cc2)C(=O)OCCOCCOCC)cc1 (repeat unit) | 34.00
*CCCCCCCCCCCCCNC(=O)CCCCCCCCCCCC(=O)N* (repeat unit) | 56.50
*c1ccc(-c2ccc([Si](*)(C)C)s2)s1 (repeat unit) | 45.00
*CC(*)c1ccc(-c2ccc3c(c2)C(CCCCCC)(CCCCCC)c2ccccc2-3)cc1 (repeat unit) | 81.2
*C1C2CC(C(=O)OCCc3ccc(N(c4ccccc4)c4cccc(C)c4)cc3)C(C2)C1* (repeat unit) | 305.00
*Oc1ccc(C(c2ccc(OC(*)=O)cc2)C(C)C)cc1 (repeat unit) [Poly[1,1-(2-methyl propane) bis(4-phenyl)carbonate]] | 149 ± 0.6
*CC(*)CCCCCCC (repeat unit) [Poly(heptylethylene)] | -47.58 ± 0.8
*CC(*)(C)C(=O)Oc1ccc(CC#N)cc1 (repeat unit) | 131.00
*O[Si](*)(C)CCCCCCCCCCC(=O)OCCC(F)(F)C(F)(F)C(F)(F)C(F)(F)C(F)(F)C(F)(F)C(F)(F)C(F)(F)F (repeat unit) | -78.00
*CC(*)OC(=O)c1ccc(CC)cc1 (repeat unit) | 57.00
*CC(*)c1ccc(C(=O)N2CCOCC2)cc1 (repeat unit) | 127.00
*Cc1ccc(C(C)(CCC)c2ccc(Cn3c(=O)c4cc5c(=O)n(*)c(=O)c5cc4c3=O)o2)o1 (repeat unit) | 134.00
*c1cccc(C(=O)Nc2ccc(Oc3ccc(Oc4ccc(Oc5ccc(NC(=O)c6cccc(N7C(=O)c8ccc(-c9cccc%10c9C(=O)N(*)C%10=O)cc8C7=O)c6)cc5)cc4)cc3)cc2)c1 (repeat unit) | 260.00
*CC(C)(C)CS(=O)(=O)CC(C)(C)COC(=O)c1ccc(C(=O)O*)cc1 (repeat unit) | 105.00
*C(=O)OCCCCCCCCCCCCOC(=O)c1ccc(NC(=O)c2ccc(N3C(=O)c4ccc(*)cc4C3=O)cc2)cc1 (repeat unit) | 74.00
*c1ccc(Oc2ccc(S(=O)(=O)c3ccc(Oc4ccc(C5(*)OC(=O)c6ccccc65)cc4C)cc3)cc2)c(C)c1 (repeat unit) | 245.00
*Oc1ccc(C(c2ccc(Oc3ccc(C(=O)c4ccc(C(C)(C)c5ccc(C(=O)c6ccc(*)cc6)cc5)cc4)cc3)cc2)(C(F)(F)F)C(F)(F)F)cc1 (repeat unit) | 179.00
*Oc1ccc(Oc2ccc(C(=O)Nc3ccc(Cc4ccc(NC(=O)c5ccc(*)cc5)cc4)cc3)cc2)cc1-c1ccccc1 (repeat unit) | 218.00

remark: another data set of the same source

SMILES | glass transition temperature [°C]
*c1ccc(-c2ccc(N3C(=O)c4cc5c(cc4C3=O)C(c3ccccc3)(C(F)(F)F)c3cc4c(cc3O5)C(=O)N(*)C4=O)cc2OC(F)(F)F)c(OC(F)(F)F)c1 (repeat unit) | 400.00
*Oc1cccc(Sc2ccc(Oc3ccc4c(c3)C(=O)N(c3ccc(Oc5cccc(Oc6ccc(N7C(=O)c8ccc(*)cc8C7=O)cc6)c5)cc3)C4=O)cc2)c1 (repeat unit) | 219.00
*c1ccc2c(c1)C(=O)N(c1ccc(Oc3c(F)c(F)c(Oc4ccc(N5C(=O)c6ccc(C(*)(C(F)(F)F)C(F)(F)F)cc6C5=O)cc4)c(F)c3F)cc1)C2=O (repeat unit) | 243.80
*Oc1cccc(C(=O)c2ccc(Oc3ccc4c(c3)C(=O)N(c3cccc(N5C(=O)c6ccc(*)cc6C5=O)c3)C4=O)cc2)c1 (repeat unit) | 239.00
*c1ccc2c(c1)C(=O)N(c1cc(C(F)(F)F)c(N3C(=O)c4ccc(C(*)(C(F)(F)F)C(F)(F)F)cc4C3=O)cc1C(F)(F)F)C2=O (repeat unit) | 365.00
*c1ccc2c(c1)C(=O)N(c1cc(N3C(=O)c4ccc([Si](*)(C)C)cc4C3=O)cc(C(F)(F)F)c1)C2=O (repeat unit) | 263.00
*c1ccc2c(c1)C(=O)N(c1ccc(-c3ccc(N4C(=O)c5ccc(C(*)(C(F)(F)F)C(F)(F)F)cc5C4=O)cc3Br)c(Br)c1)C2=O (repeat unit) | 329.00
*c1ccc2c(c1)C(=O)N(c1ccc(-c3ccc(N4C(=O)c5ccc(C(*)(C(F)(F)F)C(F)(F)F)cc5C4=O)cc3-c3ccc(C(F)(F)F)cc3)c(-c3ccc(C(F)(F)F)cc3)c1)C2=O (repeat unit) | 283.00
*Oc1ccc2ccccc2c1-c1c(Oc2ccc3c(c2)C(=O)N(c2ccc(Oc4ccc(N5C(=O)c6ccc(*)cc6C5=O)cc4)cc2)C3=O)ccc2ccccc12 (repeat unit) | 274.00
*c1cccc(C(c2cccc(-n3c(=O)c4cc5c(=O)n(*)c(=O)c5cc4c3=O)c2)(C(F)(F)F)C(F)(F)F)c1 (repeat unit) | 296.00
*c1ccc2c(c1)C(=O)N(c1c(F)c(F)c(N3C(=O)c4ccc(C(*)(C(F)(F)F)C(F)(F)F)cc4C3=O)c(F)c1F)C2=O (repeat unit) | 375.50 ± 6.4
*Oc1ccc2c(c1)C(=O)N(c1ccc(Oc3ccc(Oc4cccc(N5C(=O)c6cccc(*)c6C5=O)c4)cc3)cc1)C2=O (repeat unit) | 249.00 ± 5.7
